Measured values: patent US20190085404A1, “METHODS OF IDENTIFYING AND TREATING IMMUNE CHECKPOINT INHIBITOR-RESPONSIVE NEOPLASMS AND CELLS, TRANSGENIC ANIMALS AND KITS FOR USE THEREIN” (The Board of Trustees of the Leland Stanford Junior …, priority 2016, published 2019)

Legend:
[1] = tested on: MYC T-ALL 4188 cells; assay: Chemotherapeutic drug treatment of MYC T-ALL cells, surface protein levels by flow cytometry; format: cell-based, mouse; conditions: for CD3 expression / CD8 expression / CD25 expression / CD69 expression / CD47 expression / PD-L1 expression: MYC T-ALL 4188 cells, 10 μM; for CD3 expression / CD8 expression / CD25 expression / CD69 expression: flow cytometry; for CD47 expression / PD-L1 expression: flow cytometry MFI; for tumor cell death: MYC T-ALL cells, 10 μM each
Procedure: (§1) Hematopoietic tumor cell lines (MYC T-ALL 4188 cells derived from the transgenic mouse model, human P493-6, human T-ALL Jurkat, and human T-ALL CCRF-CEM) were grown in RPMI 1640 supplemented with 10% FBS, 1% penicillin/streptomycin, 50 μM 2-mercaptoethanol at 37° C. in 5% CO2. Solid human tumor cell lines (H1299, SKMEL28), mouse MYC HCC, and human HEPG2 were grown in DMEM supplemented with 10% FBS and 1% penicillin/streptomycin at 37° C. in 5% CO2. To turn off expression of the MYC transgene, cells were treated with 20 ng/mL Dox. Primary human T-ALL cells were obtained from four deidentified patient samples and were cultured as previously described (Bruserud et al. 2003). Briefly, cells were cultured in StemSpan H3000 (StemCell) supplemented with human stem cell factor (50 ng/ml), human IL-7 (20 ng/ml), human IL-3 (20 ng/ml), and human FLT3 ligand (20 ng/ml) (Peprotech). Human cell lines were purchased from ATCC.
(§2) Tissues were manually dissociated between microscope slides and strained to remove debris. Lysis buffer (0.15 M NH4Cl, 10 mM KHCO3, 0.1 mM EDTA pH 7.3) was used to remove red blood cells. Cells were washed and resuspended in cold flow cytometry buffer (1% FBS, 0.1% sodium azide in PBS). Staining was performed according to manufacturer instructions with the indicated antibodies (eBioscience). Labeled cells were analyzed on a FACSCalibur (Becton Dickinson), and data was analyzed using FlowJo (Treestar). Each plot is representative of three or more animals. Annexin-V and 7-AAD were used according to manufacturer's protocol (eBioscience).
FIG. 7A: CD47 and PD-L1 protein levels in MYC T-ALL 4188 cells treated with prednisone, cytoxan, cisplatin, or vincristine (10 μM each) were quantified by flow cytometry MFI. Means±SEM are shown, n=3. FIG. 7B-7E: CD3, CD8, CD25, and CD69 protein levels in MYC T-ALL 4188 cells treated as in FIG. 7A were quantified by flow cytometry. Means±SEM are shown (n=3).

[2] = tested on: cells derived from mouse MYC-driven HCC; assay: CD47 and PD-L1 protein levels in mouse MYC-driven HCC cells after chemotherapy treatment; format: cell-based; conditions: flow cytometry MFI
Procedure: as §1, with “Briefly, cells were cultured in StemSpan H3000 (StemCell) supplemented with human stem cell factor (50 ng/ml), human IL-7 (20 ng/ml), human IL-3 (20 ng/ml), and human FLT3 ligand (20 ng/ml) (Peprotech). Human cell lines were purchased from ATCC.” left out
(§3) Tissues were manually dissociated between microscope slides and strained to remove debris. […] Labeled cells were analyzed on a FACSCalibur (Becton Dickinson), and data was analyzed using FlowJo (Treestar). […]
FIG. 8A: CD47 and PD-L1 protein levels in cells derived from mouse MYC-driven HCC, following MYC inactivation or chemotherapy treatment, were quantified by flow cytometry MFI (n=3). FIG. 8B: CD47 and PD-L1 mRNA levels were quantified by qPCR and protein levels were quantified by flow cytometry in primary tumors from mouse MYC-driven HCC, following MYC inactivation (n=3 tumors per condition). […]

[3] = tested on: primary human T-ALL cells; assay: CD47, PD-L1, CD8 and MYC expression in primary human T-ALL samples; format: cell-based; conditions: 48 h; for CD8 expression / CD47 cell surface expression / PD-L1 cell surface expression: four primary human T-ALL samples, flow cytometry MFI, 10 μM JQ1, 10 μM cisplatin or shRNA
Procedure: as §1
(§4) shRNA-mediated knockdowns were performed with the pLKO.1 lentiviral vector containing either control, CD47, or PD-L1-specific shRNA. shRNA-mediated knockdown of human MYC was performed with the pLKO.1 lentiviral vector containing a scrambled control or MYC shRNA (Sigma). PD-L1 shRNA on a pLKO.1-puro backbone was purchased from Sigma and CD47 shRNA (Sigma) was cloned into a pLKO.1-Hygro backbone (Addgene). The plasmids were transfected into packaging cells and virus-containing medium supernatants were used to infect tumor cells using polybrene methodology. For conditional knockdowns, stable cell lines were generated and the time course following MYC inactivation with 20 ng/mL Dox is indicated. For stable knockdowns, the time course is indicated as the time post-viral infection.
(§5) All tissues and cells were flash-frozen in liquid nitrogen and stored at −80° C. until RNA preparation. RNA was isolated using the TRIzol Reagent (Invitrogen) according to manufacturer instructions. cDNA was synthesized using SuperScriptIII (ThermoFisher). qPCR was performed using specific primers (Table 51) and the SYBR Green qPCR Kit (Roche) in an Applied Biosystems Real-Time PCR System (Life Technologies) with QuantStudio12K Flex Software. Data was analyzed using the cycle threshold method (normalized to UBC). A minimum of 3 biological and 3 technical replicates were used for all qPCR experiments.
as §2
FIG. 6A-6B: MYC mRNA levels before and after treatment with shRNA against MYC or treatment with JQ1. MYC mRNA was measured by qPCR in human T-ALL cell lines (A, n=3) and primary human T-ALL (B, n=4) cells following MYC inhibition by shRNA or JQ1 treatment after the indicated number of hours (0-48 h for human T-ALL cell lines, 48 h for primary T-ALL).
FIG. 9A: CD47 and PD-L1 protein levels in primary human T-ALL tumor samples were quantified by flow cytometry, following 48 h treatment with control scramble shRNA or MYC-targeting shRNA. FIG. 9B: CD47, PD-L1, or CD8 protein levels in primary human T-ALL tumor samples were quantified by flow cytometry MFI, following 48 h treatment with control scramble shRNA or MYC-targeting shRNA, or treatment with 10 μM JQ1 or 10 μM cisplatin (n=4 distinct patient samples). Means±SEM are shown.

[4] = tested on: human T-ALL cell line CCRF-CEM; assay: CD47, PD-L1 and MYC expression in CCRF-CEM cells after MYC inhibition; format: cell-based
Procedure: as §1, with “ATCC. […]” for “ATCC.”
(§6) All tissues and cells were flash-frozen in liquid nitrogen and stored at −80° C. until RNA preparation. […] Data was analyzed using the cycle threshold method (normalized to UBC). […]
as §3
(§7) FIG. 1A: Flow cytometry median fluorescence intensity (MFI) was used to determine the relative cell surface expression of CD47, PD-L1, and other immune proteins following MYC inactivation in MYC T-ALL 4188 cells in vitro (n=3). FIG. 1B: Tumors were harvested from primary MYC-driven lymphomas 0 or 4 days following MYC inactivation. mRNA and protein levels were quantified by qPCR and flow cytometry MFI (n=3 tumors per condition). […] FIG. 1C: CD47 and PD-L1 protein levels in Jurkat and CCRF-CEM cells were quantified by flow cytometry MFI following MYC inhibition by conditional shRNA knockdown or 10 μM JQ1 treatment (n=3 biological replicates). […]

[5] = tested on: human T-ALL cell line Jurkat; assay: CD47, PD-L1 and MYC expression in Jurkat cells after MYC inhibition; format: cell-based
Procedure: as §1, with “ATCC. […]” for “ATCC.”
as §6, §3, §7

[6] = tested on: human melanoma cell line SKMEL28; assay: CD47 and PD-L1 mRNA and protein in SKMEL28 cells after MYC inactivation; format: cell-based; conditions: 48 hours, 10 μM JQ1 or MYC shRNA knockdown
Procedure: as §1, §4, §5, §3
(§8) FIG. 2A and FIG. 2B: The mRNA and protein levels of MYC, CD47, and PD-L1 in human melanoma SKMEL28 and human NSCLC H1299 cells were determined by qPCR and flow cytometry MFI, respectively, 48 hours after MYC inactivation in vitro. […]

[7] = tested on: human non-small cell lung cancer (NSCLC) cell line H1299; assay: CD47 and PD-L1 mRNA and protein in H1299 cells after MYC inactivation; format: cell-based; conditions: 48 hours, 10 μM JQ1 or MYC shRNA knockdown
Procedure: as §1, §4, §5, §3, §8

[8] = CCRF-CEM, protein by flow cytometry MFI, conditional shRNA knockdown or 10 μM JQ1
[9] = human T-ALL cell lines, qPCR, 0-48 h
[10] = Jurkat, protein by flow cytometry MFI, conditional shRNA knockdown or 10 μM JQ1

SMILES: C[C@]12C=CC(=O)C=C1CC[C@@H]1[C@@H]2C(=O)C[C@@]2(C)[C@H]1CC[C@]2(O)C(=O)CO [prednisone]
- CD3 expression [1]: no effect
- CD8 expression [1]: no effect
- CD25 expression [1]: no effect
- CD69 expression [1]: no effect
- CD47 expression [1]: either unaffected or showed increased expression
- PD-L1 expression [1]: either unaffected or showed increased expression
- tumor cell death [1]: tumor cell death

SMILES: O=P1(N(CCCl)CCCl)NCCCO1 (stereo not drawn) [cytoxan]
- CD3 expression [1]: no effect
- CD8 expression [1]: no effect
- CD25 expression [1]: no effect
- CD69 expression [1]: no effect
- CD47 expression [1]: either unaffected or showed increased expression
- PD-L1 expression [1]: either unaffected or showed increased expression
- tumor cell death [1]: tumor cell death

SMILES: N.N.[Cl][Pt][Cl] [cisplatin]
- CD3 expression [1]: no effect
- CD8 expression [1]: no effect
- CD25 expression [1]: no effect
- CD69 expression [1]: no effect
- CD47 expression [1]: either unaffected or showed increased expression
- PD-L1 expression [1]: either unaffected or showed increased expression
- tumor cell death [1]: tumor cell death
- expression of CD47 protein [2]: unaffected
- expression of PD-L1 protein [2]: unaffected
- CD8 expression [3]: unaffected
- CD47 cell surface expression [3]: increased
- PD-L1 cell surface expression [3]: increased

SMILES: CC[C@]1(O)C[C@H]2CN(CCc3c([nH]c4ccccc34)[C@@](C(=O)OC)(c3cc4c(cc3OC)N(C=O)[C@H]3[C@@](O)(C(=O)OC)[C@H](OC(C)=O)[C@]5(CC)C=CCN6CC[C@]43[C@@H]65)C2)C1 [vincristine]
- CD3 expression [1]: no effect
- CD8 expression [1]: no effect
- CD25 expression [1]: no effect
- CD69 expression [1]: no effect
- CD47 expression [1]: either unaffected or showed increased expression
- PD-L1 expression [1]: either unaffected or showed increased expression
- tumor cell death [1]: tumor cell death

SMILES: Cc1sc2c(c1C)C(c1ccc(Cl)cc1)=N[C@@H](CC(=O)OC(C)(C)C)c1nnc(C)n1-2 [JQ1]
- expression of CD47 [4, 8]: reduced
- expression of PD-L1 [4, 8]: reduced
- expression of MYC mRNA [4, 9]: reduced
- expression of CD47 [5, 10]: reduced
- expression of PD-L1 [5, 10]: reduced
- expression of MYC mRNA [5, 9]: reduced
- expression of CD47 protein ([6]; flow cytometry MFI): reduced
- expression of PD-L1 protein ([6]; flow cytometry MFI): reduced
- expression of CD47 mRNA ([6]; qPCR): reduced
- expression of PD-L1 mRNA ([6]; qPCR): reduced
- expression of CD47 protein ([7]; flow cytometry MFI): reduced
- expression of PD-L1 protein ([7]; flow cytometry MFI): reduced
- expression of CD47 mRNA ([7]; qPCR): reduced
- expression of PD-L1 mRNA ([7]; qPCR): reduced
- CD8 expression [3]: unaffected
- CD47 cell surface expression [3]: reduced
- PD-L1 cell surface expression [3]: reduced
- expression of MYC mRNA ([3]; primary human T-ALL cells, qPCR): reduced
